Test results published in PMC11452651 (Nature Communications, 2024).

Key:
p38α = p38α (Homo sapiens, UniProt Q16539); test: Fluorescence polarization; type: binding; settings: p38 Kiapp
JNK1 = JNK1 (Homo sapiens, UniProt P45983); test: Fluorescence polarization; type: binding; settings: JNK1 Kiapp
ERK2 = ERK2 (Homo sapiens, UniProt P28482); test: Fluorescence polarization; type: binding; settings: ERK2 Kiapp, Table 2, different electron withdrawing groups at C2 or cyclopentenone scaffold
[1] = tested on: AP-1 promoter mediated transcription; type: cell-based; settings: 1 μM, + PMA, 6 h
[2] = Table 2, different electron withdrawing groups at C2 or cyclopentenone scaffold

JNK1, sequence (P45983 whole entry): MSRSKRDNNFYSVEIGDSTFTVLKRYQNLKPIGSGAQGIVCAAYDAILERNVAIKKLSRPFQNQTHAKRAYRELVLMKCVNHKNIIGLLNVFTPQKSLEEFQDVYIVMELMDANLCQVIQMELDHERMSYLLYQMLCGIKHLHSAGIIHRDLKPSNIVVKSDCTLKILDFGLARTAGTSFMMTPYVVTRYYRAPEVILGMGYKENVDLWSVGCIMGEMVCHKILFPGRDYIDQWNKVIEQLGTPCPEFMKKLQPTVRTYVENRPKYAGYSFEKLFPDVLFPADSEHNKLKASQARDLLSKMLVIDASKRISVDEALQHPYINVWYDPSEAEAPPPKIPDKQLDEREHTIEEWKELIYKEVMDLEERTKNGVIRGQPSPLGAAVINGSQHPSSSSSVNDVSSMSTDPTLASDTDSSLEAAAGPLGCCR
p38α, sequence (Q16539 whole entry): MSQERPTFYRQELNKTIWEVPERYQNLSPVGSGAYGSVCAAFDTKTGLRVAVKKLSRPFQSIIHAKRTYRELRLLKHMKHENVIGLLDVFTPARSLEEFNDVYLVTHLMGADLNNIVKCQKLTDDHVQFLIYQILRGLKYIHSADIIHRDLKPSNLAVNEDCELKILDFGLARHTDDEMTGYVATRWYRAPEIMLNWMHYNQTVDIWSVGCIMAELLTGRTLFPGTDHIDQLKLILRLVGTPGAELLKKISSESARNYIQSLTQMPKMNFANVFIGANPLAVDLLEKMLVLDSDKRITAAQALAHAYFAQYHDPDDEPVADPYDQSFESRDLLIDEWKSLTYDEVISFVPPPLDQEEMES
ERK2, sequence (P28482 whole entry): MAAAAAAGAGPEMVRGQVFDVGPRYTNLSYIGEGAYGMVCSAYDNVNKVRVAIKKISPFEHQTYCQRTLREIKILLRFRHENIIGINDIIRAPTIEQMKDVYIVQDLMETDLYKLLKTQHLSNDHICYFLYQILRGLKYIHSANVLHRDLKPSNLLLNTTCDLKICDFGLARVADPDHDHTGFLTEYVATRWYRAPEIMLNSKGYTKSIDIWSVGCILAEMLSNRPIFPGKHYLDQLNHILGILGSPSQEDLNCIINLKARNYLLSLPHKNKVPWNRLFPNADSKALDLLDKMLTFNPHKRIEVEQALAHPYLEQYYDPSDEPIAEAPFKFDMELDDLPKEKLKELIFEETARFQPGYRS

| Ki (p38α; Table 4, C4-extended compounds) | Ki (JNK1; Table 4, C4-extended compounds) | Ki (p38α; [2]) | Ki (ERK2) | Ki (JNK1; [2]) | Structure (SMILES) | effect on AP-1 mediated transcription [1] |
| --- | --- | --- | --- | --- | --- | --- |
| 2.8 ± 0.7 µM | 8.8 ± 2.6 µM | – | – | – | Cc1cc(-c2cccc(-n3cc(COC(=O)[C@]4(C)C=C(C(=O)OC(C)(C)C)C(=O)CC4)nn3)c2)c(C)c2c1CNCC2 [33S] | – |
| – | – | 28 ± 2.4 µM | 136 ± 14.1 µM | > 200 µM | COC(=O)C1=CC(C)(C)CC1=O [compound 25] | – |
| – | – | – | – | – | O=C(Nc1ccc2[nH]nc(-c3ccncc3)c2c1)[C@@H]1CCN(CC(=O)N2CCN(c3ccc(-c4ncccn4)cc3)CC2)C1 [SCH772984] | attenuate |
| 1.1 ± 0.1 µM | 2.4 ± 0.3 µM | – | – | – | C#CCCOC(=O)[C@]1(C)C=C(C(=O)OC(C)(C)C)C(=O)CC1 [29S] | – |
| – | – | – | – | – | Oc1ccc(-c2nc(-c3ccncc3)c(-c3ccc(F)cc3)[nH]2)cc1 [SB202190] | attenuate |
| – | – | 27.4 ± 3.3 µM | 169 ± 8.7 µM | > 200 µM | CC1(C)C=C(C(=O)OC(C)(C)C)C(=O)C1 [compound 26] | – |
